Structures can show the parent of a compound that is named as a salt.
Tested on: Male ddY mice
Assay: Inhibitory effect of scratching behavior induced by Substance-P
Type: in vivo, mouse
Details: test drug sc 30 minutes before intradermal Substance-P, scratching counted for 30 minutes
Procedure: Male ddY mice were purchased when they were 4 weeks old, and used in the experiments when they became 5 weeks old after acclimation. One day before experiment, each mouse had hair on the rostral back skin clipped with a hair clipper. Each of test drugs was dissolved in 10% DMSO. Either the test drug or vehicle was administered subcutaneously into the rostral back of the mouse, and 30 minutes later, Substance-P (250 nmom/site) dissolved in PBS (phosphate buffered saline) was administered intradermally into the hair-clipped skin at a dose of about 50 μL. Immediately thereafter, each mouse was put into a cage for observation (10*14*22 cm), and the subsequent behavior of each mouse was recorded by an unattended video camera for 30 minutes. The video tape was replayed, and the number of times that the mouse scratched at or around the Substance-P-administered site with its hind limb was counted. In the experiment, each group consisted of 8 mice. In cases where there was a statistically significant difference in the mean number of scratching between the solvent-administered group and the test drug-administered group, the test drug was judged to have an antipruritic effect. The results are shown in terms of the predicted administration dosage at which the number of scratching was reduced to half of that in the solvent-administered group (Table 5).

SMILES | ED50 (predicted administration dosage at which the number of scratching was reduced to half of that in the solvent-administered group)
O=C1C2=C(CCCC2)C(=O)N1[C@@H]1CC[C@@]2(O)[C@H]3Cc4ccc(O)c5c4[C@@]2(CCN3CC2CC2)[C@H]1O5 [Compound 3, N-[(17-cyclopropylmethyl)-4,5α-epoxy-3,14-dihydroxy-morphinan-6β-yl]-3,4,5,6-tetrahydrophthalimide tartaric acid salt] | 0.0033 mg/kg, sc
O=C1c2ccccc2C(=O)N1[C@@H]1CC[C@@]2(O)[C@H]3Cc4ccc(O)c5c4[C@@]2(CCN3CC2CC2)[C@H]1O5 [Compound 1, N-[(17-cyclopropylmethyl)-4,5α-epoxy-3,14-dihydroxy-morphinan-6β-yl]-phthalimide hydrochloric acid salt] | 0.0034 mg/kg, sc
O=C1c2ccccc2S(=O)(=O)N1[C@@H]1CC[C@@]2(O)[C@H]3Cc4ccc(O)c5c4[C@@]2(CCN3CC2CC2)[C@H]1O5 [Compound 4, [N-(17-cyclopropylmethyl)-4,5α-epoxy-3,14-dihydroxy-morphinan-6β-yl]-O-sulfonebenzimide tartaric acid salt] | 0.0081 mg/kg, sc
O=C1c2ccccc2C(=O)N1[C@@H]1CC[C@@]2(O)[C@H]3Cc4ccc(O)c5c4[C@@]2(CCN3CC2CC2)[C@H]1O5 [Compound 6, N-[(17-cyclopropylmethyl)-4,5α-epoxy-3,14-dihydroxy-morphinan-6β-yl]-phthalimide] | 0.0029 mg/kg, sc
C=CCN1CC[C@]23c4c5ccc(O)c4O[C@H]2[C@H](N2C(=O)c4ccccc4C2=O)CC[C@@]3(O)[C@H]1C5 [Compound 2, N-[(17-allyl)-4,5α-epoxy-3,14-dihydroxy-morphinan-6β-yl]-phthalimide tartaric acid salt] | 0.32 mg/kg, sc
CN(C(=O)c1ccccc1)[C@@H]1CC[C@@]2(O)[C@H]3Cc4ccc(O)c5c4[C@@]2(CCN3CC2CC2)[C@H]1O5 [Compound 7, 17-cyclopropylmethyl-4,5α-epoxy-3,14-dihydroxy-6β-(N-methylbenzamido)-morphinan hydrochloric acid salt, reference compound] | 0.55(Reference Example) mg/kg, sc
O=C1c2ccccc2CN1[C@@H]1CC[C@@]2(O)[C@H]3Cc4ccc(O)c5c4[C@@]2(CCN3CC2CC2)[C@H]1O5 [Compound 5, 2-[(17-cyclopropylmethyl)-4,5α-epoxy-3,14-dihydroxy-morphinan-6β-yl]-2,3-dihydro-isoindole-1-one tartaric acid salt] | 0.015 mg/kg, sc

Tested on: not given
Assay: not given
Details: in vivo; cited from earlier work

SMILES | effect on severe pruritus in cholestasia with hepathopathy
C=C1CC[C@@]2(O)[C@H]3Cc4ccc(O)c5c4[C@@]2(CCN3CC2CC2)[C@H]1O5 [nalmefene] | suppressed

Tested on: not given
Assay: not given
Details: epidurally or intrathecally administered; cited from earlier work

SMILES | induction of pruritus
CN1CC[C@]23c4c5ccc(O)c4O[C@H]2[C@@H](O)C=C[C@H]3[C@H]1C5 [morphine] | induced
